One experiment has as its system H2030. Nature of the experiment: Non Small Cell Lung Cancer Proliferation Assay (Alamar Blue). The class given is cell-based, human. Conditions: Homo sapiens, NCI-H2030, dose response 10 μM to 5 nM. Here is the method:
(§1) These cells have a doubling time of 1-2 days. All cell types are adherent and grow in colonies. The cells should be kept at a density between 50,000 cells/mL-500,000 cells/mL to provide for optimum growth and adequate nutrition. The cell line should be maintained at 37° C. in a humidified atmosphere with 5% CO2 in a sterile cell culture incubator.
(§2) To perform the assay, the Non Small Cell Lung Cancer lines are diluted in media and plated into 384 well microplates at a final density of 250 cells in 45 μL.
(§3) High Controls for this assay are made by treating Non Small Cell Lung Cancer cells with 5 ul of 10% DMSO. [Final concentration in this assay is 1% DMSO].
(§4) Important Note: All compounds for testing in this assay should be done at the final concentration of 1% DMSO.
(§5) After addition, the cells are placed in cell culture incubator at 37° C. for 48 hours for complete treatment.
(§6) After drug treatment, cytotoxicity is measured by Alamar Blue reduction.
(§7) The cells are incubated for 48 hours at 37° C. to complete the Alamar Blue reduction.
(§8) The final step in the assay is to measure the amount of Alamar Blue reduction. […] The Alamar Blue fluorescence is measured at an excitation of 530 nm and emission of 590 nm.
(§9) For the NSCLC project, the cell based assay was screened against a small molecule library of approximately 200,000 compounds. The compound library is stored in our automated robotic freezer (Biophile) at −20° C. in 100% DMSO. Compound freeze and thaw cycles are kept to a minimum. […] This assay was performed on a fully automated linear track robotic platform (CRS F3 Robot System, Thermo Electron Corp., Ontario, Canada) utilizing several integrated peripherals for plate handling, liquid dispensing, and readout detection. […] The microplates are then placed at 37° C. for 48 hours to complete treatment of cells with compounds. Next, 5 ul of alamar blue was added using a liquid dispenser (FlexDrop Precision Dispenser, Perkin Elmer, Mass., USA) and incubated for 48 hours at 37° C. The alamar blue prompt fluorescence was measured on Victor V (Victor^3 V, Perkin Elmer, Mass., USA) and output data files were loaded into ORIS (Oncology Research Informatics System, MSKCC, NY, USA), a screening data acquisition and analysis platform.
(In general: Resazurin is reduced to fluorescent resorufin, in cell work by metabolically active cells.)

The subject of another experiment is H3255. The experiment is described as above. Conditions: Homo sapiens, NCI-H3255, dose response 10 μM to 5 nM. It counts as cell-based, human. Here is the method:
as §1, §2, §3, §4, §5, §6, §7, §8, §9

For the next experiment, the system named is H1734. Briefly: Non Small Cell Lung Cancer Proliferation Assay (Alamar Blue), dose response. Particulars: Homo sapiens, NCI-H1734, read-out: H1734 Dose Response (uM).

Protocol for H1734: This assay was performed on a fully automated linear track robotic platform (CRS F3 Robot System, Thermo Electron Corp., Ontario, Canada) utilizing several integrated peripherals for plate handling, liquid dispensing, and readout detection. […] The microplates are then placed at 37° C. for 48 hours to complete treatment of cells with compounds. Next, 5 ul of alamar blue was added using a liquid dispenser (FlexDrop Precision Dispenser, Perkin Elmer, Mass., USA) and incubated for 48 hours at 37° C. The alamar blue prompt fluorescence was measured on Victor V (Victor^3 V, Perkin Elmer, Mass., USA) and output data files were loaded into ORIS (Oncology Research Informatics System, MSKCC, NY, USA), a screening data acquisition and analysis platform. […]

Take `Cc1ccccc1-n1ncc(Cl)c(Cl)c1=O` [compound 257017]: the values for the IC50 in the experiment with H2030, with H3255 and in the experiment with H1734 were 1080 nM, 2950 nM and 3.2 µM, respectively.

These data come from patent US20130131062A1, “PYRIDAZINONES AND FURAN-CONTAINING COMPOUNDS” (priority 2006, published 2013).
